# Data as given in patent US20240099295A1, “CELL TREATMENT AGENT” (AYA Inc., priority 2021, published 2024).
# Experiments:
# Assay type in all cases: cell-based
# [1] = test system: Mouse malignant melanoma highly metastatic strain cell; assay: Cell protective effect: cell survival during preservation under refrigeration (trypan blue excretion test); conditions: inhibitor b 0.25 mg/mL; 5% glucose solution; refrigerator 4° C.
# Protocol: Using a 5% glucose solution as a conditioning solution, nafamostat mesilate (Fusan for Injection, available from Nichi-Iko Corporation), which is a proteolytic enzyme inhibitor, was added to the conditioning solution in the concentrations shown in Table 8 (in Fusan for Injection (available from Nichi-Iko Corporation), use of a 5% glucose solution as a dilution solution is specified) to prepare cell preservation solutions. To each cell preservation solution, cells of mouse malignant melanoma high metastatic strain were added at a concentration of 10^6 cells/ml and left in a refrigerator set at 4° C. for 48 hours, and then the average survival rate (%) of cells was determined in the same manner as in Experimental Example of (1-4-1-1). The results are of N=4.
# [2] = test system: rat corneal epithelial cells; assay: Cell detaching and suspending effect (Experimental Example 4); conditions: dextran aqueous solution (MW 35000-50000), concentrations shown in Table 13; observed over time
# Protocol: A culture solution in which FBS was added to a normal serum-free cell culture solution in a concentration of 10% (10% FBS cell culture solution) was prepared in a culture dish. To this, rat corneal epithelial cells were added at 10^6 cells/ml and cultured for 24 hours under normal cell culture conditions (37° C., CO2 concentration of 5%, humidity of 100%) to make the cultured cells fully adhere to the culture dish wall which is a scaffold.
# The culture solution in the culture dish on which cultured cells obtained as described above had adhered was replaced with each of dextran sulfate aqueous solutions and a dextran aqueous solution, which are respectively obtained by dissolving dextran sulfate (Dextran sodium sulfate MW 36000-50000, available from FUJIFILM Wako Pure Chemical Corporation) and dextran (Dextran MW 35000-50000, available from FUJIFILM Wako Pure Chemical Corporation) in purified water and have concentrations shown in Table 13, and the resultant culture solutions were continuously cultured under normal cell culture conditions (37° C., CO2 concentration of 5%, humidity of 100%). For each adherent cell, detachment and suspension of adherent cells from the dish wall was observed over time. For determination of detachment and suspension, the culture dish was gently shaken manually to observe whether the cells were detached from the dish wall and suspended, and the case where 90% or more of the cells were detached and suspended was determined as detachment and suspension of adherent cells. The results are of N=4. In Table 13, “∘” means that the cells were detached and suspended, and “x” means that the cells were not detached and suspended.
# [3] = test system: Rat corneal epithelial cell; assay: Cell protective effect: cell survival during preservation (trypan blue excretion test); conditions: for Average survival rate at 24 hours / Average survival rate after preservation for 24 hours: normal temperature (22° C.); for Average survival rate at 72 hours / Average survival rate after preservation for 7 days: refrigerator 4° C.
# Protocol: (§1) Using a normal serum-free cell culture solution without FBS or a Ringer's solution (Otsuka Pharmaceutical Co., Ltd., Lactec Injection, Japanese Pharmacopoeia, Sodium L-lactate Ringer's solution) as a conditioning solution for use, for example, in preservation and transportation of cells, sodium alginate (Na alginate) (Fuji Chemical Industry Co., Ltd. Snow Algin SSL, viscosity of 1% aqueous solution is 30 mPa·s at 20° C.) was added to the conditioning solution in the concentrations shown in Table 1 to prepare cell preservation solutions. To each cell preservation solution, the above-described cells were added at a concentration of 10^6 cells/ml to satisfy the conditions shown in Table 1, and the resultant solution was left to stand in a room at normal temperature (22° C.) for 24 hours, and then whether cells were alive or dead was determined, and rates of viable cells (average survival rate (%)) were calculated and compared. Cell viability was determined by the trypan blue excretion test that is the ordinary method of confirming cell viability. The excretion test was performed according to the method described in “Denizot F., et al., Rapid colorimetric assay for cell growth and survival. Modifications to the tetrazolium dye procedure giving improved sensitivity and reliability. J. Immunol. Methods, 89, 271-277 (1986)”. The results are of N=4.
# (§2) The average survival rate (%) was determined in the same manner as in Experimental Example (1-1-1) except that the preservation conditions were changed to leaving still for 72 hours in a refrigerator at a set temperature of 4° C. The results are of N=4.
# The average survival rate (%) of cells was determined in the same manner as in Experimental Example (1-1-1) except that dextran sulfate (dextran sulfate special grade reagent available from NACALAI TESQUE, INC.) was used instead of sodium alginate and the conditions were as shown in Table 3. The results are of N=4.
# The average survival rate (%) of cells was determined in the same manner as in Experimental Example (1-2-1) except that the preservation conditions were changed to leaving still for 72 hours in a refrigerator at a set temperature of 4° C. and to conditions shown in Table 4. The results are of N=3 in the case of using a serum-free cell culture solution, and are of N=4 in the case of using a Ringer's solution.
# The average survival rate (%) of cells was determined in the same manner as in Experimental Example (1-1-1) except that heparin sodium (Heparin Na Mochida, unfractionated heparin, available from Mochida Pharmaceutical Co., Ltd.) was used instead of alginic acid and the conditions were as shown in Table 5. The results are of N=4.
# The average survival rate (%) of cells was determined in the same manner as in Experimental Example (1-3-1) except that the preservation conditions were changed to leaving still for 72 hours in a refrigerator at a set temperature of 4° C. and to conditions shown in Table 6. The results are of N=4.
# The average survival rate (%) of cells was determined in the same manner as in Experimental Example (1-3-2) except that urinastatin (Miraclid injection solution, containing 2.5 million units, available from Mochida Pharmaceutical Co., Ltd.) was used as a proteolytic enzyme inhibitor instead of heparin sodium and the conditions were as shown in Table 7. The results are of N=4. “Unit (U)” in the unit of concentration (units/mL) of inhibitor a in Table 7 can be measured, for example, by the quantitative method of urinastatin in the Japanese Pharmacopoeia 15th revision. Specifically, absorbance at 405 nm of a sample solution is measured with a UV 240 spectrophotometer, and concentration of urinastatin can be calculated from a calibration curve prepared in advance. […]
# [4] = test system: Chinese hamster fibroblast; assay: as above; conditions: for Average survival rate at 24 hours / Average survival rate at 72 hours: Ringer's solution; for Average survival rate at 24 hours: normal temperature (22° C.); for Average survival rate at 72 hours: refrigerator 4° C.
# Protocol: as §1, §2
# [5] = test system: Rat corneal epithelial cell; assay: Cell dormancy effect: cell cycle analysis by flow cytometry; conditions: Na alginate 2.5 mg/mL (Wako first grade, 120 mPa·s); serum-free cell culture solution; cultured 48 hours at 37° C.
# Protocol: Sodium alginate (sodium alginate first grade reagent, available from FUJIFILM Wako Pure Chemical Corporation, viscosity of 1% aqueous solution is 120 mPa·s at 20° C.), DS (the same as in Experimental Example 1), or sodium heparin (the same as in Experimental Example 1) was used as an active ingredient in the cell treatment agent, and whether cell dormancy occurs or not by action of the active ingredient was examined by comparing the activities of cell division and proliferation which are the most general cell activities in the following manner.
# The cell cycle was analyzed by flow cytometry according to the method described in known literature (Piotr Pozarowski and Zbigniew Darzynkiewicz, “Analysis of Cell Cycle by Flow Cytometry,” Methods in Molecular Biology, vol. 281: Checkpoint Controls and Cancer, Volume 2), and frequency of cell division and proliferation was compared between different active ingredients of the cell treatment agent. A specific method is as follows. Using a normal serum-free cell culture solution as a conditioning solution (comparison reference (a)), (b) a cell preservation solution in which sodium alginate (Na alginate) is added to the conditioning solution in a concentration of 2.5 mg/ml, (c) a cell preservation solution in which DS is added to the conditioning solution in a concentration of 0.1 mg/ml, and (d) a cell preservation solution in which heparin sodium (heparin Na) is added to the conditioning solution in a concentration of 50 units/ml, were prepared. To these cell preservation solutions, rat corneal epithelial cells were added at a cell concentration of 10^5 cells/ml and cultured for 48 hours under normal cell culture conditions (37° C., CO2 concentration of 5%, humidity of 100%). The number of cells in each culture was determined by cell cycle analysis using flow cytometry to determine the number of cells in each cell cycle, and the percentage of cells in the S phase, G2 phase, and M phase, which are considered as the periods of the cell division and proliferation process, was compared with the percentage of cells in the G0 phase and G1 phase, which are considered as other periods. The results are of N=4.
# [6] = Na alginate 0.63 mg/mL, Ringer's solution
# [7] = Na alginate 0.63 mg/mL, serum-free cell culture solution
# [8] = Na alginate 2.5 mg/mL, Ringer's solution
# [9] = Na alginate 2.5 mg/mL, serum-free cell culture solution
# [10] = Na alginate 5 mg/mL, serum-free cell culture solution
# [11] = Sodium alginate 0.5 mg/ml, Ringer's solution
# [12] = Sodium alginate 2.5 mg/ml, Ringer's solution
# [13] = Sodium alginate 50 mg/ml, Ringer's solution
molecule,measurement,setting,value
"N=C(N)c1ccc2cc(OC(=O)c3ccc(N=C(N)N)cc3)ccc2c1 [inhibitor b, nafamostat mesilate]",Average survival rate at 48 hours,[1],43%
dextran [reference compound],Detachment and suspension of adherent cells after replacement,[2],not detached and suspended in any of the cases
low molecular weight heparin sodium [reference compound],Effect of improving cell viability (cell protective effect),"[3]; rat corneal epithelial cells, same experiment as for heparin sodium, values not given",the cell protective effect was observed
same,Effect of improving cell viability (cell protective effect),"[4]; Chinese hamster fibroblasts, same preservation experiments, values not given",the cell protective effect was observed
sodium alginate [Na alginate],Average survival rate at 24 hours,[3]; [6],52%
same,Average survival rate at 72 hours,[3]; [6],68%
same,Average survival rate at 24 hours,[3]; [7],60%
same,Average survival rate at 72 hours,[3]; [7],77%
same,Average survival rate at 24 hours,"[3]; Na alginate 1.25 mg/mL, Ringer's solution",51%
same,Average survival rate at 24 hours,[3]; [8],53%
same,Average survival rate at 72 hours,[3]; [8],72%
same,Average survival rate at 24 hours,[3]; [9],70%
same,Average survival rate at 72 hours,[3]; [9],80%
same,Average survival rate at 72 hours,"[3]; Na alginate 5 mg/mL, Ringer's solution",64%
same,Average survival rate at 24 hours,[3]; [10],74%
same,Average survival rate at 72 hours,[3]; [10],70%
same,Average survival rate at 24 hours,[4]; Na alginate 0.63 mg/mL,56%
same,Average survival rate at 72 hours,[4]; Na alginate 0.63 mg/mL,73%
same,Average survival rate at 24 hours,[4]; Na alginate 1.25 mg/mL,57%
same,Average survival rate at 24 hours,[4]; Na alginate 2.5 mg/mL,60%
same,Average survival rate at 72 hours,[4]; Na alginate 2.5 mg/mL,77%
same,Average survival rate at 72 hours,[4]; Na alginate 5 mg/mL,70%
same,Percentages of cells of each cell cycle: G0 phase + G1 phase,[5],88.1%
same,Percentages of cells of each cell cycle: S phase + G2 phase + M phase,[5],10.1%
"sodium alginate [Sodium alginate 30 mPa · s (1% aqueous solution, 20° C.)]",Average survival rate after preservation for 24 hours,"[3]; Sodium alginate 0.2 mg/ml, Ringer's solution",50%
same,Average survival rate after preservation for 7 days,[3]; [11],51%
same,Average survival rate after preservation for 24 hours,"[3]; Sodium alginate 1 mg/ml, Ringer's solution",54%
same,Average survival rate after preservation for 7 days,[3]; [12],56%
"sodium alginate [Sodium alginate 30 mPa · s (10% aqueous solution, 20° C.)]",Average survival rate after preservation for 7 days,[3]; [12],54%
same,Average survival rate after preservation for 7 days,"[3]; Sodium alginate 10 mg/ml, Ringer's solution",69%
same,Average survival rate after preservation for 24 hours,"[3]; Sodium alginate 20 mg/ml, Ringer's solution",46%
same,Average survival rate after preservation for 24 hours,[3]; [13],50%
same,Average survival rate after preservation for 7 days,[3]; [13],72%
"sodium alginate [Sodium alginate 120 mPa · s (1% aqueous solution, 20° C.)]",Average survival rate after preservation for 24 hours,"[3]; Sodium alginate 0.1 mg/ml, Ringer's solution",62%
same,Average survival rate after preservation for 7 days,[3]; [11],53%
same,Average survival rate after preservation for 24 hours,[3]; [12],59%
same,Average survival rate after preservation for 7 days,[3]; [12],52%
"urinastatin (protein, UniProt P02760 206-352, looked up, Inter-alpha-trypsin inhibitor light chain) Inter-alpha-trypsin inhibitor …: AVLPQEEEGSGGGQLVTEVTKKEDSCQLGYSAGPCMGMTSRYFYNGTSMACETFQYGGCMGNGNNFVTEKECLQTCRTVAACNLPIVRGPCRAFIQLWAFDAVKGKCVLFPYGGCQGNGNKFYSEKECREYCGVPGDGDEELLRFSN",Average survival rate at 72 hours,"[3]; inhibitor a 5 units/mL, Ringer's solution",70%
